Source: patent US11596639B2, “Substituted indole Mcl-1 inhibitors” (Vanderbilt University, priority 2016, dated 2023)

Experiments:
Mcl-1 = Mcl-1 (Homo sapiens (Human), UniProt Q07820); assay: TR-FRET binding assay, FITC-Bak peptide and MBP-tagged Mcl-1; settings: read-out: Ki for Inhibition of Mcl-1 by TR-FRET assay
Experimental: Compounds are diluted in DMSO in a 16-point, semilog serial dilution scheme. […] The plate was mixed and incubated for 3 hours at room temperature. […] TR-FRET signal is plotted and IC50 and Ki values are calculated in the same manner as the fluorescence polarization anisotropy based competition assays.

[1] = tested on: H929 human cancer cell lines; assay: Cellular viability / proliferation (Cell TiterGlo, 72 h); assay type: cell-based; settings: Homo sapiens, NCI-H929, 72 h, read-out: GI50 on cellular proliferation of H929 human cancer cell lines, H929 cells, 72 h, Cell TiterGlo, 10% FBS
In short: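 Cells were seeded at 1,000 cells/well in medium with 10% FBS and dosed 24 h later with a 2-fold serial dilution of compound (top concentration 50 μM, final DMSO <1%).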

Mcl-1, sequence (Q07820 172-327): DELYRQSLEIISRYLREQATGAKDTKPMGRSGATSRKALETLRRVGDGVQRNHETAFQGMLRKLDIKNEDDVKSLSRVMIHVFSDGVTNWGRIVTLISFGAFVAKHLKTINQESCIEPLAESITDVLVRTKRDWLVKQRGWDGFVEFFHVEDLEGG

| SMILES | Ki (Mcl-1) [nM] | GI50 [1] [nM] |
| --- | --- | --- |
| COCCOc1cc(N2C[C@@H](C)n3c(c(CCCOc4cc(C)c(Cl)c(C)c4)c4ccc(Cl)c(-c5c(C)nn(C)c5C)c43)C2=O)c2c(c1)c(C(=O)O)cn2Cc1ccccn1 [Example 609, (R)-7-(7-chloro-10-(3-(4-chloro-3,5-dimethylphenoxy)propyl)-4-methyl-1-oxo-6-(1,3,5-trimethyl-1H-pyrazol-4-yl)-3,4-dihydropyrazino[1,2-a]indol-2(1H)-yl)-5-(2-methoxyethoxy)-1-(pyridin-2-ylmethyl)-1H-indole-3-carboxylic acid] | 0.26 | 340 |
| COC1CCN(Cc2cc(N3C[C@@H](C)n4c(c(CCCOc5cc(C)c(Cl)c(C)c5)c5ccc(Cl)c(-c6c(C)nn(C)c6C)c54)C3=O)c3c(c2)cc(C(=O)O)n3C)CC1 [Example 649, (R)-7-(7-chloro-10-(3-(4-chloro-3,5-dimethylphenoxy)propyl)-4-methyl-1-oxo-6-(1,3,5-trimethyl-1H-pyrazol-4-yl)-3,4-dihydropyrazino[1,2-a]indol-2(1H)-yl)-5-((4-methoxypiperidin-1-yl)methyl)-1-methyl-1H-indole-2-carboxylic acid] | < 0.2 | < 200 |
| Cc1cc(OCCCc2c3n(c4c(-c5c(C)nn(C)c5C)c(Cl)ccc24)[C@H](C)CN(c2cc(COCc4cscn4)cc4cc(C(=O)O)n(C)c24)C3=O)cc(C)c1Cl [Example 688, (R)-7-(7-chloro-10-(3-(4-chloro-3,5-dimethylphenoxy)propyl)-4-methyl-1-oxo-6-(1,3,5-trimethyl-1H-pyrazol-4-yl)-3,4-dihydropyrazino[1,2-a]indol-2(1H)-yl)-1-methyl-5-((thiazol-4-ylmethoxy)methyl)-1H-indole-2-carboxylic acid] | 0.22 | 430 |
| Cc1cc(OCCCc2c3n(c4c(-c5c(C)nn(C)c5C)c(Cl)ccc24)[C@H](C)CN(c2cn(C)c4ccc(-c5nn[nH]n5)nc24)C3=O)cc(C)c1Cl [Example 687, (R)-7-chloro-10-(3-(4-chloro-3,5-dimethylphenoxy)propyl)-4-methyl-2-(1-methyl-5-(2H-tetrazol-5-yl)-1H-pyrrolo[3,2-b]pyridin-3-yl)-6-(1,3,5-trimethyl-1H-pyrazol-4-yl)-3,4-dihydropyrazino[1,2-a]indol-1(2H)-one] | < 0.2 | 330 |
| CCOCCOc1cc(N2C[C@@H](C)n3c(c(CCCOc4cc(C)c(Cl)c(C)c4)c4ccc(Cl)c(-c5c(C)nn(C)c5C)c43)C2=O)c2c(c1)c(C(=O)O)cn2Cc1ccccn1 [Example 610, (R)-7-(7-chloro-10-(3-(4-chloro-3,5-dimethylphenoxy)propyl)-4-methyl-1-oxo-6-(1,3,5-trimethyl-1H-pyrazol-4-yl)-3,4-dihydropyrazino[1,2-a]indol-2(1H)-yl)-5-(2-ethoxyethoxy)-1-(pyridin-2-ylmethyl)-1H-indole-3-carboxylic acid] | < 0.2 | 400 |
| Cc1cc(OCCCc2c3n(c4c(-c5c(C)nn(C)c5C)c(Cl)ccc24)[C@H](C)CN(c2cn(CC(=O)N(C)C)c4ccc(-c5ncccn5)cc24)C3=O)cc(C)c1Cl [Example 637, (R)-2-(3-(7-Chloro-10-(3-(4-chloro-3,5-dimethylphenoxy)propyl)-4-methyl-1-oxo-6-(1,3,5-trimethyl-1H-pyrazol-4-yl)-3,4-dihydropyrazino[1,2-a]indol-2(1H)-yl)-5-(pyrimidin-2-yl)-1H-indol-1-yl)-N,N-dimethylacetamide] | 1.3 | 530 |
| Cc1cc(OCCCc2c3n(c4c(-c5c(C)nn(C)c5C)c(Cl)ccc24)[C@H](C)CN(c2cccc4cc(C(=O)O)n(Cc5ccncn5)c24)C3=O)cc(C)c1Cl [Example 518, (R)-7-(7-chloro-10-(3-(4-chloro-3,5-dimethylphenoxy)propyl)-4-methyl-1-oxo-6-(1,3,5-trimethyl-1H-pyrazol-4-yl)-3,4-dihydropyrazino[1,2-a]indol-2(1H)-yl)-1-(pyrimidin-4-ylmethyl)-1H-indole-2-carboxylic acid] | < 0.2 | 810 |
